Test results from publication PMC5218480 (PLoS ONE, 2017).

System: MV-4-11 cells
Assay: Gene expression microarray analysis (Affymetrix PrimeView) and GSEA
Format: cell-based, human
Set-up: RFU PODN (11730768_x_at) / Fold change /veh PODN (11730768_x_at) / RFU LINC00158 (11744669_a_at) / Fold change /veh LINC00158 (11744669_a_at) / RFU DUSP10 (11751237_a_at) / Fold change /veh DUSP10 (11751237_a_at) / RFU ID3 (11757404_x_at) / Fold change /veh ID3 (11757404_x_at) / RFU PLEKHG5 (11737974_s_at) / Fold change /veh PLEKHG5 (11737974_s_at) / RFU LRRC4B (11730491_at) / Fold change /veh LRRC4B (11730491_at) / RFU GIMAP4 (11747438_a_at) / Fold change /veh GIMAP4 (11747438_a_at) / RFU KRT8 (11758183_x_at) / Fold change /veh KRT8 (11758183_x_at) / RFU CNN1 (11734310_a_at) / Fold change /veh CNN1 (11734310_a_at) / RFU VPS37D (11726825_at) / Fold change /veh VPS37D (11726825_at) / RFU C10orf10 (11716522_x_at) / Fold change /veh C10orf10 (11716522_x_at) / RFU KIR2DL2 /// KIR2DL4 /// KIR2DL5A /// KIR2DL5B /// KIR2DS1 /// KIR2DS2 /// KIR2DS3 /// KIR2DS4 /// KIR3DL3 /// KIR3DL3 /// KIR3DS1 (11738374_at) / Fold change /veh KIR2DL2 /// KIR2DL4 /// KIR2DL5A /// KIR2DL5B /// KIR2DS1 /// KIR2DS2 /// KIR2DS3 /// KIR2DS4 /// KIR3DL3 /// KIR3DL3 /// KIR3DS1 (11738374_at) / RFU C1QL1 (11718748_at) / Fold change /veh C1QL1 (11718748_at) / RFU TMPRSS4 (11747572_a_at) / Fold change /veh TMPRSS4 (11747572_a_at) / RFU HAMP (11756126_x_at) / Fold change /veh HAMP (11756126_x_at) / RFU RNFT2 (11725882_a_at) / Fold change /veh RNFT2 (11725882_a_at) / RFU NR4A2 (11747474_a_at) / Fold change /veh NR4A2 (11747474_a_at) / RFU ABCC12 (11746883_a_at) / Fold change /veh ABCC12 (11746883_a_at) / RFU TMEM136 (11760407_x_at) / Fold change /veh TMEM136 (11760407_x_at) / RFU CLDN22 /// WWC2 (11732394_at) / Fold change /veh CLDN22 /// WWC2 (11732394_at) / RFU HLA-DPB1 (11760878_x_at) / Fold change /veh HLA-DPB1 (11760878_x_at) / RFU SPINT1 (11716480_a_at) / Fold change /veh SPINT1 (11716480_a_at) / RFU GAP43 (11754022_s_at) / Fold change /veh GAP43 (11754022_s_at) / RFU A4GNT (11735810_at) / Fold change /veh A4GNT (11735810_at) / RFU PRB3 (11715151_x_at) / Fold change /veh PRB3 (11715151_x_at) / RFU TUBB4B (11761932_at) / Fold change /veh TUBB4B (11761932_at) / RFU CAPN14 (11732068_a_at) / Fold change /veh CAPN14 (11732068_a_at) / RFU TMCC2 (11721928_a_at) / Fold change /veh TMCC2 (11721928_a_at) / RFU IRGQ (11745062_a_at) / Fold change /veh IRGQ (11745062_a_at) / RFU FAM174B (11720279_a_at) / Fold change /veh FAM174B (11720279_a_at) / RFU TMPRSS4 (11748680_a_at) / Fold change /veh TMPRSS4 (11748680_a_at) / RFU FAM212B (11763350_a_at) / Fold change /veh FAM212B (11763350_a_at) / RFU PLEKHG5 (11743358_a_at) / Fold change /veh PLEKHG5 (11743358_a_at) / RFU ZSCAN30 (11745921_a_at) / Fold change /veh ZSCAN30 (11745921_a_at) / RFU CMKLR1 (11741424_a_at) / Fold change /veh CMKLR1 (11741424_a_at) / RFU LOC101060620 /// MAPK8IP1 (11723275_at) / Fold change /veh LOC101060620 /// MAPK8IP1 (11723275_at) / RFU SPTSSB (11747773_x_at) / Fold change /veh SPTSSB (11747773_x_at) / RFU PRSS12 (11739890_at) / Fold change /veh PRSS12 (11739890_at) / RFU BIN1 (11741810_x_at) / Fold change /veh BIN1 (11741810_x_at) / RFU WNT11 (11732464_a_at) / Fold change /veh WNT11 (11732464_a_at) / RFU C10orf10 (11716521_a_at) / Fold change /veh C10orf10 (11716521_a_at) / RFU C5orf56 (11738089_at) / Fold change /veh C5orf56 (11738089_at) / RFU CYB561 (11721691_x_at) / Fold change /veh CYB561 (11721691_x_at) / RFU ANKRD19P (11752326_a_at) / Fold change /veh ANKRD19P (11752326_a_at) / RFU OR2T12 /// OR2T33 /// OR2T8 (11738714_s_at) / Fold change /veh OR2T12 /// OR2T33 /// OR2T8 (11738714_s_at) / RFU VCAN (11748164_a_at) / Fold change /veh VCAN (11748164_a_at) / RFU JSRP1 (11732532_at) / Fold change /veh JSRP1 (11732532_at) / RFU KRTAP10-11 (11738290_x_at) / Fold change /veh KRTAP10-11 (11738290_x_at) / RFU MYO3A (11730013_a_at) / Fold change /veh MYO3A (11730013_a_at) / RFU EBF3 (11725865_a_at) / Fold change /veh EBF3 (11725865_a_at) / RFU CAMK2N1 (11719241_x_at) / Fold change /veh CAMK2N1 (11719241_x_at) / RFU C5orf56 (11738088_a_at) / Fold change /veh C5orf56 (11738088_a_at) / RFU OLFML3 (11715873_a_at) / Fold change /veh OLFML3 (11715873_a_at) / RFU LOC100653217 /// NTM (11731650_a_at) / Fold change /veh LOC100653217 /// NTM (11731650_a_at) / RFU MAPK11 (11762145_a_at) / Fold change /veh MAPK11 (11762145_a_at) / RFU FIZ1 (11724087_x_at) / Fold change /veh FIZ1 (11724087_x_at) / RFU OASL (11726364_x_at) / Fold change /veh OASL (11726364_x_at) / RFU SOX15 (11748057_x_at) / Fold change /veh SOX15 (11748057_x_at) / RFU CD79A (11719716_a_at) / Fold change /veh CD79A (11719716_a_at) / RFU HIST1H1D (11736915_at) / Fold change /veh HIST1H1D (11736915_at) / RFU CASKIN2 (11723855_a_at) / Fold change /veh CASKIN2 (11723855_a_at) / RFU LOC730098 (11760151_x_at) / Fold change /veh LOC730098 (11760151_x_at) / RFU OR4N2 (11742367_at) / Fold change /veh OR4N2 (11742367_at) / RFU PRRT2 (11749266_a_at) / Fold change /veh PRRT2 (11749266_a_at) / RFU SNX32 (11753110_a_at) / Fold change /veh SNX32 (11753110_a_at) / RFU CDHR5 (11726645_a_at) / Fold change /veh CDHR5 (11726645_a_at) / RFU RCAN1 (11760418_a_at) / Fold change /veh RCAN1 (11760418_a_at) / RFU FAM167A (11723789_a_at) / Fold change /veh FAM167A (11723789_a_at) / RFU FAM26E (11764081_at) / Fold change /veh FAM26E (11764081_at) / RFU ISYNA1 (11749810_s_at) / Fold change /veh ISYNA1 (11749810_s_at) / RFU ACY1 (11761880_at) / Fold change /veh ACY1 (11761880_at) / RFU 11764098_at / Fold change /veh 11764098_at / RFU SAMD14 (11745864_x_at) / Fold change /veh SAMD14 (11745864_x_at) / RFU NPB (11741838_a_at) / Fold change /veh NPB (11741838_a_at) / RFU TMPRSS6 (11731388_a_at) / Fold change /veh TMPRSS6 (11731388_a_at) / RFU KRTAP10-2 (11738614_at) / Fold change /veh KRTAP10-2 (11738614_at) / RFU ARHGAP8 /// PRR5-ARHGAP8 (11727945_x_at) / Fold change /veh ARHGAP8 /// PRR5-ARHGAP8 (11727945_x_at) / RFU KRTAP5-7 /// NADSYN1 (11734609_at) / Fold change /veh KRTAP5-7 /// NADSYN1 (11734609_at) / RFU RASL12 (11751679_a_at) / Fold change /veh RASL12 (11751679_a_at) / RFU CDKN2B (11736163_a_at) / Fold change /veh CDKN2B (11736163_a_at) / RFU PRF1 (11729649_at) / Fold change /veh PRF1 (11729649_at) / RFU, ZNF638 /// ZNF638-IT1 / Fold change vs veh, ZNF638 /// ZNF638-IT1 / RFU, PANK3 / Fold change vs veh, PANK3 / RFU, SH3YL1 / Fold change vs veh, SH3YL1 / RFU, ZEB2 / Fold change vs veh, ZEB2 / RFU, NRIP1 / Fold change vs veh, NRIP1 / RFU, PTTG1IP / Fold change vs veh, PTTG1IP / RFU, CAPN2 / Fold change vs veh, CAPN2 / RFU, MED14 / Fold change vs veh, MED14 / RFU, SNORA58 / Fold change vs veh, SNORA58 / RFU, C1orf63 / Fold change vs veh, C1orf63 / RFU, LRRFIP1 / Fold change vs veh, LRRFIP1 / RFU, NDUFAF7 / Fold change vs veh, NDUFAF7 / RFU, SLC12A2 / Fold change vs veh, SLC12A2 / RFU, IBTK / Fold change vs veh, IBTK / RFU, ESF1 / Fold change vs veh, ESF1 / Fold change vs veh, TMEM50B / RFU, TAOK1 / Fold change vs veh, TAOK1 / RFU, ACBD3 / Fold change vs veh, ACBD3 / RFU, TMA16 / Fold change vs veh, TMA16 / RFU, RWDD3 / Fold change vs veh, RWDD3 / RFU, BCAT1 / Fold change vs veh, BCAT1 / RFU, EDEM3 / Fold change vs veh, EDEM3 / RFU, TMEM33 / Fold change vs veh, TMEM33 / RFU, WDR75 / Fold change vs veh, WDR75 / RFU, AHCTF1 / Fold change vs veh, AHCTF1 / RFU, TFRC / Fold change vs veh, TFRC / RFU, ZDHHC17 / Fold change vs veh, ZDHHC17 / RFU, NOM1 / Fold change vs veh, NOM1 / RFU, ARL8B / Fold change vs veh, ARL8B / RFU, ZBTB11 / Fold change vs veh, ZBTB11 / RFU, TAMM41 / Fold change vs veh, TAMM41 / RFU, KIAA1704 /// LOC100996395 / Fold change vs veh, KIAA1704 /// LOC100996395 / RFU, ING1 / Fold change vs veh, ING1 / RFU, TRMT61B / Fold change vs veh, TRMT61B / RFU, FUBP3 / Fold change vs veh, FUBP3 / RFU, TP53 / Fold change vs veh, TP53 / RFU, TNKS2 / Fold change vs veh, TNKS2 / RFU, ZFP14 / Fold change vs veh, ZFP14 / RFU, ACTR2 / Fold change vs veh, ACTR2 / RFU, PPP3R1 / Fold change vs veh, PPP3R1 / RFU, PIK3R1 / Fold change vs veh, PIK3R1 / RFU, HNRNPA1 / Fold change vs veh, HNRNPA1 / RFU, RNF170 / Fold change vs veh, RNF170 / RFU, ZNF28 / Fold change vs veh, ZNF28 / RFU, RNGTT / Fold change vs veh, RNGTT / RFU, OGT / Fold change vs veh, OGT / RFU, BRD1 / Fold change vs veh, BRD1 / RFU, MARS / Fold change vs veh, MARS / RFU, ZNF655 / Fold change vs veh, ZNF655 / RFU, FAHD1 / Fold change vs veh, FAHD1 / RFU, BDP1 / Fold change vs veh, BDP1 / RFU, LRRCC1 / Fold change vs veh, LRRCC1 / RFU, ARID1A / Fold change vs veh, ARID1A / RFU, ZNF146 / Fold change vs veh, ZNF146 / RFU, ZNF330 / Fold change vs veh, ZNF330 / RFU, GPN3 / Fold change vs veh, GPN3 / RFU, C9orf123 / Fold change vs veh, C9orf123 / RFU, N4BP2L2 / Fold change vs veh, N4BP2L2 / RFU, ARFIP1 / Fold change vs veh, ARFIP1 / RFU, FAM179B / Fold change vs veh, FAM179B / RFU, BCL10 / Fold change vs veh, BCL10 / RFU, UHRF1BP1L / Fold change vs veh, UHRF1BP1L / RFU, BET1 / Fold change vs veh, BET1 / RFU, CNOT2 / Fold change vs veh, CNOT2 / RFU, ZNF268 / Fold change vs veh, ZNF268 / Fold change vs veh, ZNF507 / RFU, DGCR2 / Fold change vs veh, DGCR2 / RFU, WDSUB1 / Fold change vs veh, WDSUB1 / Fold change vs veh, HSP90B1 /// MIR3652 / RFU, ADSS / Fold change vs veh, ADSS / RFU, GK / Fold change vs veh, GK / RFU, ZNF148 / Fold change vs veh, ZNF148 / RFU, TAF9 / Fold change vs veh, TAF9 / RFU, SLC1A5 / Fold change vs veh, SLC1A5 / RFU, SLMO2 / Fold change vs veh, SLMO2 / RFU, ABCC4 / Fold change vs veh, ABCC4 / RFU, LOC101060439 /// RAP1B / Fold change vs veh, LOC101060439 /// RAP1B / RFU, RFX7 / Fold change vs veh, RFX7 / RFU, GTPBP10 / Fold change vs veh, GTPBP10 / RFU, CNEP1R1 / Fold change vs veh, CNEP1R1 / RFU, BIVM-ERCC5 /// ERCC5 / Fold change vs veh, BIVM-ERCC5 /// ERCC5 / RFU, ILF3 / Fold change vs veh, ILF3 / RFU 11762660_at / Fold change /veh 11762660_at / RFU VCAN (11757783_s_at) / Fold change /veh VCAN (11757783_s_at) / RFU DDX43 (11728927_at) / Fold change /veh DDX43 (11728927_at) / RFU KRT8 (11758188_x_at) / Fold change /veh KRT8 (11758188_x_at) / RFU NKD1 (11759106_at) / Fold change /veh NKD1 (11759106_at) / RFU SRD5A1 (11742802_a_at) / Fold change /veh SRD5A1 (11742802_a_at) / RFU TPSAB1 /// TPSB2 (11721975_s_at) / Fold change /veh TPSAB1 /// TPSB2 (11721975_s_at) / RFU GSTM3 (11746129_a_at) / Fold change /veh GSTM3 (11746129_a_at) / RFU IL23R (11737362_x_at) / Fold change /veh IL23R (11737362_x_at) / RFU TMEM51 (11727254_a_at) / Fold change /veh TMEM51 (11727254_a_at) / RFU PIWIL2 (11732686_x_at) / Fold change /veh PIWIL2 (11732686_x_at) / RFU ORM1 (11744905_x_at) / Fold change /veh ORM1 (11744905_x_at) / RFU CCDC152 (11743942_at) / Fold change /veh CCDC152 (11743942_at) / RFU ECM1 (11717891_a_at) / Fold change /veh ECM1 (11717891_a_at) / RFU IL23R (11748794_a_at) / Fold change /veh IL23R (11748794_a_at) / RFU TNFAIP8L3 (11732012_x_at) / Fold change /veh TNFAIP8L3 (11732012_x_at) / RFU MBOAT4 (11741988_at) / Fold change /veh MBOAT4 (11741988_at) / RFU 11764193_at / Fold change /veh 11764193_at / RFU TMEM53 (11763286_at) / Fold change /veh TMEM53 (11763286_at) / RFU MAGEB2 (11727129_at) / Fold change /veh MAGEB2 (11727129_at) / RFU TMEM200A (11744735_a_at) / Fold change /veh TMEM200A (11744735_a_at) / RFU CCDC152 (11751479_a_at) / Fold change /veh CCDC152 (11751479_a_at) / RFU FAM211A (11726209_a_at) / Fold change /veh FAM211A (11726209_a_at) / RFU RGS16 (11746705_a_at) / Fold change /veh RGS16 (11746705_a_at) / RFU VCAN (11755009_s_at) / Fold change /veh VCAN (11755009_s_at) / RFU RHOB (11743442_s_at) / Fold change /veh RHOB (11743442_s_at) / RFU RGS16 (11720943_a_at) / Fold change /veh RGS16 (11720943_a_at) / RFU RGS16 (11720944_at) / Fold change /veh RGS16 (11720944_at) / RFU, VPS4B / Fold change vs veh, VPS4B / RFU, CREB1 / Fold change vs veh, CREB1 / RFU, DNAJC13 / Fold change vs veh, DNAJC13 / RFU, GNAQ / Fold change vs veh, GNAQ / RFU, CDK5R1 / Fold change vs veh, CDK5R1 / RFU, ZRANB3 / Fold change vs veh, ZRANB3 / RFU, CUL4A / Fold change vs veh, CUL4A / RFU, CCNY / Fold change vs veh, CCNY / RFU, UFL1 / Fold change vs veh, UFL1 / RFU, COG3 / Fold change vs veh, COG3 / RFU, DIAPH2 / Fold change vs veh, DIAPH2 / RFU, SKA2 / Fold change vs veh, SKA2 / RFU, AFF3 / Fold change vs veh, AFF3 / RFU, LMF1 / Fold change vs veh, LMF1 / RFU, IPO11 / Fold change vs veh, IPO11 / RFU, DFFB / Fold change vs veh, DFFB / RFU, FOXP1 / Fold change vs veh, FOXP1 / RFU, CARD8 / Fold change vs veh, CARD8 / RFU, STRN3 / Fold change vs veh, STRN3 / RFU, ADK / Fold change vs veh, ADK / RFU, RASSF2 / Fold change vs veh, RASSF2 / RFU, WIPF1 / Fold change vs veh, WIPF1 / RFU, LARP1B / Fold change vs veh, LARP1B / RFU, RASA1 / Fold change vs veh, RASA1 / RFU, RB1 / Fold change vs veh, RB1 / RFU, PPFIA1 / Fold change vs veh, PPFIA1 / RFU, MAT2A / Fold change vs veh, MAT2A / RFU, CCT5 / Fold change vs veh, CCT5 / RFU, WDR92 / Fold change vs veh, WDR92 / RFU, CUX1 / Fold change vs veh, CUX1 / RFU, TTC7A / Fold change vs veh, TTC7A / RFU, TMEM135 / Fold change vs veh, TMEM135 / RFU, DEPTOR / Fold change vs veh, DEPTOR / RFU, CPM / Fold change vs veh, CPM / RFU, DNAJB6 / Fold change vs veh, DNAJB6 / RFU, CACNA2D3 / Fold change vs veh, CACNA2D3 / RFU, DTX4 / Fold change vs veh, DTX4 / RFU, TFCP2 / Fold change vs veh, TFCP2 / RFU, GMCL1 /// GMCL1P1 / Fold change vs veh, GMCL1 /// GMCL1P1 / RFU, AEBP2 / Fold change vs veh, AEBP2 / RFU, SNHG1 /// SNORD22 /// SNORD25 /// SNORD26 /// SNORD27 /// SNORD28 /// SNORD29 /// SNORD31 / Fold change vs veh, SNHG1 /// SNORD22 /// SNORD25 /// SNORD26 /// SNORD27 /// SNORD28 /// SNORD29 /// SNORD31 / Fold change (Aza/veh), C12orf56 (ProbeSet 11735607_a_at) / Fold change (ACY-1035/veh), C12orf56 (ProbeSet 11735607_a_at) / Fold change (Aza/veh), FGFR1OP (ProbeSet 11751329_s_at) / Fold change (ACY-1035/veh), FGFR1OP (ProbeSet 11751329_s_at) / Fold change (Aza/veh), VPS36 (ProbeSet 11739960_a_at) / Fold change (ACY-1035/veh), VPS36 (ProbeSet 11739960_a_at) / RFU SYPL1 (11715823_x_at) / Fold change /veh SYPL1 (11715823_x_at) / RFU IGFBP7 (11715501_s_at) / Fold change /veh IGFBP7 (11715501_s_at) / RFU REEP3 (11722064_at) / Fold change /veh REEP3 (11722064_at) / RFU IGLL1 (11728026_x_at) / Fold change /veh IGLL1 (11728026_x_at): dose or concentration left out as unconfirmed
Conditions: ProbeSet 11745260_x_at; LIST B

SMILES: Nc1ncn([C@@H]2O[C@H](CO)[C@@H](O)[C@H]2O)c(=O)n1 [azacitidine]
- RFU, SLC12A2: 29.09 RFU
